The text below walks through data of patent US10570184B2, “GLP-1/glucagon receptor co-agonists for medical use” (Novo Nordisk A/S, priority 2014, dated 2020).

Starred links: 1 amine or outer side, 2 acyl side, 3 side chain; linkers in the order of their positions; H or OH if unused. Non-standard residues stand in square brackets, D forms with d. Residues, ends and D or L forms follow the SMILES beside them. Groups on a side chain read outwards from the residue. *: point of attachment. C18 diacid = O=C(O)CCCCCCCCCCCCCCCCC(=O)*; γGlu = O=C(O)[C@H](CCC(=O)[*:2])N[*:1]; Ac4c = NC1(C(=O)O)CCC1; AEEA = NCCOCCOCC(=O)O; Aib = CC(C)(N)C(=O)O

In one series the target is T1, human GLP-1 receptor (Homo sapiens, UniProt P43220).
T1 construct: expressed in transfected cells; host or cells: membranes of BHK cells (parent BHKTS13), clone FCW467-12A
T1 sequence (P43220 24-463): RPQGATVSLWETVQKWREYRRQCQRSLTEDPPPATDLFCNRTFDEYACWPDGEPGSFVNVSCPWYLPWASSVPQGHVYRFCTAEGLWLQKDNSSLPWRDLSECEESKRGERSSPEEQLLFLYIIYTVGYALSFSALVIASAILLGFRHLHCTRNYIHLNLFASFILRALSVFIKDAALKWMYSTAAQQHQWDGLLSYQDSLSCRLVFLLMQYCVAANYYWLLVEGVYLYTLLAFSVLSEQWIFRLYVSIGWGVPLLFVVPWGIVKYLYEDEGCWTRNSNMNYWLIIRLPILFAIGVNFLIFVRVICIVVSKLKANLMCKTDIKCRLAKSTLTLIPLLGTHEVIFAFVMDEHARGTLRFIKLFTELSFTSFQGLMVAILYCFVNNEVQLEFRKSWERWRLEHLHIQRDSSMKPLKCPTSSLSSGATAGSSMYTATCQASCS
Briefly: Assay (I)(a) GLP-1 receptor activation, CRE luciferase reporter gene assay in BHK cells. The series is classed as cell-based. Particulars: without presence of serum albumin; read-out: GLP-1R EC50 (pM) [Assay (I)(a)]. The essentials:
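Stable BHK clone expressing human GLP-1 receptor with CRE-driven firefly luciferase, 5×10EE3 cells/well in medium with 2% ovalbumin and 0.2% Pluronic F-68. Compounds at 1×10EE-13 to 1×10EE-6 M final, 3 h at 37° C.; luminescence read, EC50 (pM) from four-parameter fit.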
In general terms: In a reporter assay the amount or activity of a reporter protein is the signal.

Series [1] is described as follows: Assay (III) ThT fibrillation assay for physical stability. The series is classed as physicochemical. The following applies: 250 μM in 10 mM HEPES buffer, 37° C., shaking 960 rpm. The essentials:
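Glucagon derivative at 250 μM in 10 mM HEPES pH 7.5 with 1 μM ThT was incubated at 37 °C under 960 rpm orbital shaking. Fluorescence (ex 444/em 485 nm) was read every 20 min and fitted for lag time (t0−2τ) and kapp (1/τ). Recovery was soluble peptide after centrifugation/filtration, by RP-HPLC, as percent of initial.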

For `CC[C@H](C)[C@H](NC(=O)[C@H](CC(C)C)NC(=O)[C@H](Cc1c[nH]c2ccccc12)NC(=O)[C@H](C)NC(=O)[C@@H](NC(=O)[C@H](Cc1ccccc1)NC(=O)[C@H](CC(=O)O)NC(=O)[C@H](CCCNC(=N)N)NC(=O)[C@H](C)NC(=O)[C@H](CCCNC(=N)N)NC(=O)[C@H](CCCNC(=N)N)NC(=O)[C@H](C)NC(=O)[C@H](CC(=O)O)NC(=O)[C@H](CC(C)C)NC(=O)[C@H](Cc1ccc(O)cc1)NC(=O)[C@H](CCCCN)NC(=O)[C@H](CO)NC(=O)[C@H](Cc1ccc(O)cc1)NC(=O)[C@H](CC(=O)O)NC(=O)[C@H](CO)NC(=O)[C@@H](NC(=O)[C@H](Cc1ccccc1)NC(=O)[C@@H](NC(=O)CNC(=O)[C@H](CCC(N)=O)NC(=O)C(C)(C)NC(=O)[C@@H](N)Cc1c[nH]cn1)[C@@H](C)O)[C@@H](C)O)C(C)C)C(=O)N[C@@H](CCCCNC(=O)CC[C@H](NC(=O)CC[C@H](NC(=O)COCCOCCNC(=O)COCCOCCNC(=O)CC[C@H](NC(=O)CCCCCCCCCCCCCCCCC(=O)O)C(=O)O)C(=O)O)C(=O)O)C(=O)N[C@H](C(N)=O)[C@@H](C)O` [Chem. 32, N^ε28-[(4S)-4-carboxy-4-[[(4S)-4-carboxy-4-[[2-[2-[2-[[2-[2-[2-[[(4S)-4-carboxy-4-(17-carboxyheptadecanoylamino)butanoyl]amino]ethoxy]ethoxy]acetyl]amino]ethoxy]ethoxy]acetyl]amino]butanoyl]amino]butanoyl]-[Aib2,Ala16,Arg20,Ala24,Ile27,Lys28]-Glucagon amide] (H-H[Aib]QGTFTSDYSKYLDARRARDFVAWLIK([γGlu-γGlu-AEEA-AEEA-γGlu-C18 diacid])T-NH2), the EC50 on human GLP-1 receptor worked out at 2 pM. Further, in series [1], the “ThT Assay Lag time (h) [Assay (III), pH 7.5]” value (“ThT Assay Lag time (h)” for short) was found to be 45.0 h.
Regarding `CC[C@H](C)[C@H](NC(=O)[C@H](CC(C)C)NC(=O)[C@H](Cc1c[nH]c2ccccc12)NC(=O)[C@H](CCC(N)=O)NC(=O)[C@@H](NC(=O)[C@H](Cc1ccccc1)NC(=O)[C@H](CCC(=O)O)NC(=O)[C@H](CCC(N)=O)NC(=O)[C@H](C)NC(=O)[C@H](CCCNC(=N)N)NC(=O)[C@H](CCCNC(=N)N)NC(=O)[C@H](CO)NC(=O)[C@H](CCC(=O)O)NC(=O)[C@H](CC(C)C)NC(=O)[C@H](Cc1ccc(O)cc1)NC(=O)[C@H](CCCCN)NC(=O)[C@H](CO)NC(=O)[C@H](CC(C)C)NC(=O)[C@H](CC(=O)O)NC(=O)[C@H](CO)NC(=O)[C@@H](NC(=O)[C@H](Cc1ccccc1)NC(=O)[C@@H](NC(=O)CNC(=O)[C@H](CCC(N)=O)NC(=O)C1(NC(=O)[C@@H](N)Cc2c[nH]cn2)CCC1)[C@@H](C)O)[C@@H](C)O)C(C)C)C(=O)N[C@@H](CCCCNC(=O)CC[C@H](NC(=O)COCCOCCNC(=O)COCCOCCNC(=O)CC[C@H](NC(=O)CC[C@H](NC(=O)CCCCCCCCCCCCCCCCC(=O)O)C(=O)O)C(=O)O)C(=O)O)C(=O)N[C@H](C(N)=O)[C@@H](C)O` [Chem. 38, N^ε28-[(4S)-4-carboxy-4-[[2-[2-[2-[[2-[2-[2-[[(4S)-4-carboxy-4-[[(4S)-4-carboxy-4-(17-carboxyheptadecanoylamino)butanoyl]amino]butanoyl]amino]ethoxy]ethoxy]acetyl]amino]ethoxy]ethoxy]acetyl]amino]butanoyl]-[Acb2,Leu10,Glu15,Glu21,Ile27,Lys28]-Glucagon amide] (H-H[Ac4c]QGTFTSDLSKYLESRRAQEFVQWLIK([γGlu-AEEA-AEEA-γGlu-γGlu-C18 diacid])T-NH2; N-terminus assumed), the half-maximal effective concentration (EC50) on human GLP-1 receptor was 2 pM. Moreover, the “ThT Assay Lag time (h)” value in series [1] is 45.0 h.
On the same counts, the results for `CC[C@H](C)[C@H](NC(=O)[C@H](CC(C)C)NC(=O)[C@H](Cc1c[nH]c2ccccc12)NC(=O)[C@H](CCC(N)=O)NC(=O)[C@@H](NC(=O)[C@H](Cc1ccccc1)NC(=O)[C@H](CC(=O)O)NC(=O)[C@H](CCCNC(=N)N)NC(=O)[C@H](C)NC(=O)[C@H](CCCNC(=N)N)NC(=O)[C@H](CCCNC(=N)N)NC(=O)[C@H](CO)NC(=O)[C@H](CCC(=O)O)NC(=O)[C@H](CC(C)C)NC(=O)[C@H](Cc1ccc(O)cc1)NC(=O)[C@H](CCCNC(=N)N)NC(=O)[C@H](CO)NC(=O)[C@H](Cc1ccc(O)cc1)NC(=O)[C@H](CC(=O)O)NC(=O)[C@H](CO)NC(=O)[C@@H](NC(=O)[C@H](Cc1ccccc1)NC(=O)[C@@H](NC(=O)CNC(=O)[C@H](CCC(N)=O)NC(=O)C1(NC(=O)[C@@H](N)Cc2c[nH]cn2)CCC1)[C@@H](C)O)[C@@H](C)O)C(C)C)C(=O)N[C@@H](CCCCNC(=O)CC[C@H](NC(=O)COCCOCCNC(=O)CC[C@H](NC(=O)COCCOCCNC(=O)CC[C@H](NC(=O)COCCOCCNC(=O)CC[C@H](NC(=O)CC[C@H](NC(=O)CCCCCCCCCCCCCCCCC(=O)O)C(=O)O)C(=O)O)C(=O)O)C(=O)O)C(=O)O)C(=O)N[C@H](C(N)=O)[C@@H](C)O` [Chem. 36, N^ε28-[(4S)-4-carboxy-4-[[2-[2-[2-[[(4S)-4-carboxy-4-[[2-[2-[2-[[(4S)-4-carboxy-4-[[2-[2-[2-[[(4S)-4-carboxy-4-[[(4S)-4-carboxy-4-(17-carboxyheptadecanoylamino)butanoyl]amino]butanoyl]amino]ethoxy]ethoxy]acetyl]amino]butanoyl]amino]ethoxy]ethoxy]acetyl]amino]butanoyl]amino]ethoxy]ethoxy]acetyl]amino]butanoyl]-[Acb2,Arg12,Glu15,Arg20,Ile27,Lys28]-Glucagon amide] (H-H[Ac4c]QGTFTSDYSRYLESRRARDFVQWLIK([γGlu-AEEA-γGlu-AEEA-γGlu-AEEA-γGlu-γGlu-C18 diacid])T-NH2; N-terminus assumed) are 4 pM and 3.7 h.
On the same counts, the results for `CC[C@H](C)[C@H](NC(=O)[C@H](CC(C)C)NC(=O)[C@H](Cc1c[nH]c2ccccc12)NC(=O)[C@H](CCC(N)=O)NC(=O)[C@@H](NC(=O)[C@H](Cc1ccccc1)NC(=O)[C@H](CCC(=O)O)NC(=O)[C@H](CCCNC(=N)N)NC(=O)[C@H](C)NC(=O)[C@H](CCCNC(=N)N)NC(=O)[C@H](CCCNC(=N)N)NC(=O)[C@H](C)NC(=O)[C@H](CC(=O)O)NC(=O)[C@H](CC(C)C)NC(=O)[C@H](Cc1ccc(O)cc1)NC(=O)[C@H](CCCCN)NC(=O)[C@H](CO)NC(=O)[C@H](CC(C)C)NC(=O)[C@H](CC(=O)O)NC(=O)[C@H](CO)NC(=O)[C@@H](NC(=O)[C@H](Cc1ccccc1)NC(=O)[C@@H](NC(=O)CNC(=O)[C@H](CCC(N)=O)NC(=O)C(C)(C)NC(=O)[C@@H](N)Cc1c[nH]cn1)[C@@H](C)O)[C@@H](C)O)C(C)C)C(=O)N[C@@H](CO)C(=O)N[C@@H](CCCCNC(=O)CC[C@H](NC(=O)CC[C@H](NC(=O)COCCOCCNC(=O)COCCOCCNC(=O)CC[C@H](NC(=O)CCCCCCCCCCCCCCCCC(=O)O)C(=O)O)C(=O)O)C(=O)O)C(N)=O` [Chem. 28, N^ε29-[(4S)-4-carboxy-4-[[(4S)-4-carboxy-4-[[2-[2-[2-[[2-[2-[2-[[(4S)-4-carboxy-4-(17-carboxyheptadecanoylamino)butanoyl]amino]ethoxy]ethoxy]acetyl]amino]ethoxy]ethoxy]acetyl]amino]butanoyl]amino]butanoyl]-[Aib2,Leu10,Ala16,Arg20,Glu21,Ile27,Ser28,Lys29]-Glucagon amide] (H-H[Aib]QGTFTSDLSKYLDARRAREFVQWLISK([γGlu-γGlu-AEEA-AEEA-γGlu-C18 diacid])-NH2; N-terminus assumed) are 3 pM and 45.0 h.
For `CC[C@H](C)[C@H](NC(=O)[C@H](CC(C)C)NC(=O)[C@H](Cc1c[nH]c2ccccc12)NC(=O)[C@H](C)NC(=O)[C@@H](NC(=O)[C@H](Cc1ccccc1)NC(=O)[C@H](CC(=O)O)NC(=O)[C@H](CCCNC(=N)N)NC(=O)[C@H](C)NC(=O)[C@H](CCCNC(=N)N)NC(=O)[C@H](CCCNC(=N)N)NC(=O)[C@H](CC(C)C)NC(=O)[C@H](CC(=O)O)NC(=O)[C@H](CC(C)C)NC(=O)[C@H](Cc1ccc(O)cc1)NC(=O)[C@H](CCCCN)NC(=O)[C@H](CO)NC(=O)[C@H](CC(C)C)NC(=O)[C@H](CC(=O)O)NC(=O)[C@H](CO)NC(=O)[C@@H](NC(=O)[C@H](Cc1ccccc1)NC(=O)[C@@H](NC(=O)CNC(=O)[C@H](CCC(N)=O)NC(=O)C(C)(C)NC(=O)[C@@H](N)Cc1c[nH]cn1)[C@@H](C)O)[C@@H](C)O)C(C)C)C(=O)N[C@@H](CC(N)=O)C(=O)N[C@@H](CCCCNC(=O)CC[C@H](NC(=O)CC[C@H](NC(=O)COCCOCCNC(=O)COCCOCCNC(=O)CC[C@H](NC(=O)CCCCCCCCCCCCCCCCC(=O)O)C(=O)O)C(=O)O)C(=O)O)C(N)=O` [Chem. 24, N^ε29-[(4S)-4-carboxy-4-[[(4S)-4-carboxy-4-[[2-[2-[2-[[2-[2-[2-[[(4S)-4-carboxy-4-(17-carboxyheptadecanoylamino)butanoyl]amino]ethoxy]ethoxy]acetyl]amino]ethoxy]ethoxy]acetyl]amino]butanoyl]amino]butanoyl]-[Aib2,Leu10,Leu16,Arg20,Ala24,Ile27,Lys29]-Glucagon amide] (H-H[Aib]QGTFTSDLSKYLDLRRARDFVAWLINK([γGlu-γGlu-AEEA-AEEA-γGlu-C18 diacid])-NH2; N-terminus assumed), on human GLP-1 receptor, the EC50 was determined as 3 pM. Further, the “ThT Assay Lag time (h)” value in series [1] was 45.0 h.

The term EC50 denotes the midpoint of the concentration-response curve.
